Columns and labels:
[1] = human
[2] = human, serum
[3] = human; remark: listed apart in the source
[4] = human; remark: listed apart in the source
[5] = human; remark: listed apart in the source
[6] = human; remark: listed apart in the source
[7] = Highest frequency of acute liver toxicity observed during clinical trials, expressed as a percentage. [column '% AIGUE' in source]; conditions: human
[8] = human; remark: listed apart in the source
[9] = human, serum; remark: listed apart in the source
[10] = Times to onset, minimal and maximal, observed in the indexed observations. [column 'DELAI' in source]; conditions: human
[11] = human; remark: listed apart in the source
[12] = Proposed mechanism(s) of liver damage. [column 'MEC' in source]; conditions: human
[13] = human; remark: listed apart in the source
[14] = human; remark: listed apart in the source
[15] = Highest frequency of moderate liver toxicity observed during clinical trials, expressed as a percentage. [column '% BIOL' in source]; conditions: human
[16] = human, serum, 4383 h
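For Hepatotoxicity (association with vascular disease) in this document: count of indexed literature references reporting vascular liver injury in humans, e.g. peliosis hepatitis, hepatic veno-occlusive disease or Budd-Chiari syndrome.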
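For Hepatotoxicity (benign tumour) in this document: value is a count of indexed literature references citing a benign tumour confirmed by histopathology.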
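For Hepatotoxicity (choleostasis) in this document: human cholestatic liver injury, shown by histopathology or by peak ALT or AST elevation over alkaline phosphatase ratio below 2, value counts indexed literature reports.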
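For Hepatotoxicity (chronic liver disease) in this document: chronic liver injury confirmed by histopathology or persistently raised serum aminotransferase activity beyond 6 months, value given as the count of indexed literature references.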
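For Hepatotoxicity (cirrhosis) in this document: value is a count of indexed literature references reporting cirrhosis confirmed by histopathology.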
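For Hepatotoxicity (cytolytic) in this document: human cytolytic liver injury, shown by histopathology or by a ratio above 5 of peak ALT or AST elevation to alkaline phosphatase elevation, value counts indexed references.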
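For Hepatotoxicity (granulomatous hepatitis) in this document: value is a count of indexed literature references reporting granulomatous liver disease confirmed by histopathology.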
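For Hepatotoxicity (malignant tumour) in this document: malignant tumour confirmed by histopathology, value gives the count of indexed literature references reporting it.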
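For Hepatotoxicity (severe hepatitis) in this document: human clinical data: severe hepatitis, meaning potentially life-threatening liver failure or clinically observed cases, the value counts how many indexed literature references report it.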
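For Hepatotoxicity (steatosis) in this document: steatosis confirmed by histopathology, value is the count of indexed references.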

c1ccc2c(CCC3CCNCC3)c[nH]c2c1 [INDALPINE]
Hepatotoxicity (association with vascular disease) [1]: 0
Hepatotoxicity (acute) [2]: 1
Hepatotoxicity (choleostasis) [3]: 1
Hepatotoxicity (steatosis) [4]: 1
Hepatotoxicity (benign tumour) [5]: 0
Hepatotoxicity (granulomatous hepatitis) [6]: 0
Hepatotoxicity (acute) [7]: 0%
Hepatotoxicity (malignant tumour) [8]: 0
Hepatotoxicity (moderate) [9]: 1
Hepatotoxicity (time to onset) [10]: 25 days - 4 months
Hepatotoxicity (severe hepatitis) [11]: 0
Hepatotoxicity (mechanism) [12]: Allergic
Hepatotoxicity (cirrhosis) [13]: 0
Hepatotoxicity (cytolytic) [14]: 1
Hepatotoxicity (moderate) [15]: 0%
Hepatotoxicity (chronic liver disease) [16]: 0

CNC(=O)c1c(I)c(C(=O)NCC(=O)Nc2c(I)c(C(=O)O)c(I)c(C(=O)NCCO)c2I)c(I)c(N(C)C(C)=O)c1I [IOXAGLIC ACID]
Hepatotoxicity (association with vascular disease) [1]: 0
Hepatotoxicity (acute) [2]: 1
Hepatotoxicity (choleostasis) [3]: 0
Hepatotoxicity (steatosis) [4]: 0
Hepatotoxicity (benign tumour) [5]: 0
Hepatotoxicity (granulomatous hepatitis) [6]: 0
Hepatotoxicity (acute) [7]: 0%
Hepatotoxicity (malignant tumour) [8]: 0
Hepatotoxicity (moderate) [9]: 0
Hepatotoxicity (time to onset) [10]: 1 days
Hepatotoxicity (severe hepatitis) [11]: 0
Hepatotoxicity (mechanism) [12]: Allergic
Hepatotoxicity (cirrhosis) [13]: 0
Hepatotoxicity (cytolytic) [14]: 1
Hepatotoxicity (moderate) [15]: 0%
Hepatotoxicity (chronic liver disease) [16]: 0

CC1=C(/C=C/C(C)=C/C=C/C(C)=C\C(=O)O)C(C)(C)CCC1 [ISOTRETINOIN]
Hepatotoxicity (association with vascular disease) [1]: 0
Hepatotoxicity (acute) [2]: 3
Hepatotoxicity (choleostasis) [3]: 0
Hepatotoxicity (steatosis) [4]: 1
Hepatotoxicity (benign tumour) [5]: 0
Hepatotoxicity (granulomatous hepatitis) [6]: 0
Hepatotoxicity (acute) [7]: 8.8%
Hepatotoxicity (malignant tumour) [8]: 0
Hepatotoxicity (moderate) [9]: 35
Hepatotoxicity (time to onset) [10]: 4 months
Hepatotoxicity (severe hepatitis) [11]: 0
Hepatotoxicity (mechanism) [12]: Dose-dependant
Hepatotoxicity (cirrhosis) [13]: 0
Hepatotoxicity (cytolytic) [14]: 1
Hepatotoxicity (moderate) [15]: 44.4%
Hepatotoxicity (chronic liver disease) [16]: 0

CC(=O)CCC1C(=O)N(c2ccccc2)N(c2ccccc2)C1=O [KEBUZONE]
Hepatotoxicity (association with vascular disease) [1]: 0
Hepatotoxicity (acute) [2]: 4
Hepatotoxicity (choleostasis) [3]: 3
Hepatotoxicity (steatosis) [4]: 0
Hepatotoxicity (benign tumour) [5]: 0
Hepatotoxicity (granulomatous hepatitis) [6]: 0
Hepatotoxicity (acute) [7]: 2.7%
Hepatotoxicity (malignant tumour) [8]: 0
Hepatotoxicity (moderate) [9]: 1
Hepatotoxicity (time to onset) [10]: 1 week - 1 month
Hepatotoxicity (severe hepatitis) [11]: 0
Hepatotoxicity (mechanism) [12]: Allergic
Hepatotoxicity (cirrhosis) [13]: 0
Hepatotoxicity (cytolytic) [14]: 3
Hepatotoxicity (moderate) [15]: 26.7%
Hepatotoxicity (chronic liver disease) [16]: 0

CNCCCC12CCC(c3ccccc31)c1ccccc12 [MAPROTILINE]
Hepatotoxicity (association with vascular disease) [1]: 0
Hepatotoxicity (acute) [2]: 8
Hepatotoxicity (choleostasis) ([3]; Liver): 4
Hepatotoxicity (steatosis) [4]: 0
Hepatotoxicity (benign tumour) [5]: 0
Hepatotoxicity (granulomatous hepatitis) ([6]; Liver): 0
Hepatotoxicity (acute) ([7]; Liver): 0%
Hepatotoxicity (malignant tumour) [8]: 0
Hepatotoxicity (moderate) [9]: 5
Hepatotoxicity (time to onset) [10]: 2 days - 4 years
Hepatotoxicity (severe hepatitis) ([11]; Liver): 0
Hepatotoxicity (mechanism) ([12]; Liver): Dose-dependant
Hepatotoxicity (cirrhosis) [13]: 0
Hepatotoxicity (cytolytic) ([14]; Liver): 7
Hepatotoxicity (moderate) ([15]; Liver): 25%
Hepatotoxicity (chronic liver disease) [16]: 0
